According to the supplement of paper PMC10883282:
± gives the standard deviation of the averaged measurements.

How the values were obtained:
Assay in all cases: relative viability vs DMSO control (72 h) (fraction); higher = more viable cells
KHOS-240S = tested on: KHOS-240S
Outline: (§1)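 After seeding at densities set for 80–90% confluence in 384-well plates, sarcoma cell lines waited 24 h before 2.5 µl of serially diluted compound was added. Source plates held 10 mM down to 0.0002 mM. Plates were incubated 72 h at 37 °C with 5% CO2, with 0.1% DMSO vehicle and a 5 µM positive control, and relative viability was taken from ATPLite as percent growth averaged over up to triplicate wells, with 1 set as full and 0 as none.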

MES-SA = tested on: MES-SA
Outline: as §1

RD = tested on: RD
Outline: as §1

SW1353 = tested on: SW1353
Outline: as §1

SYO-1 = tested on: SYO-1
Outline: as §1

O=C(Nc1ccc(OC(F)(F)Cl)cc1)c1cnc(N2CC[C@@H](O)C2)c(-c2cc[nH]n2)c1 [Asciminib]
relative viability
Details | KHOS-240S | MES-SA | RD | SW1353 | SYO-1
0.00017 µM | 1.04 ± 0.021 | 0.88 ± 0.045 | 1.05 ± 0.026 | 0.946 ± 0.021 | 0.92 ± 0.023
0.00051 µM | 1.01 ± 0.013 | 0.902 ± 0.0096 | 1.049 ± 0.01 | 0.958 ± 0.011 | 0.91 ± 0.018
0.00152 µM | 1.02 ± 0.026 | 0.864 ± 0.039 | 1.067 ± 0.0057 | 0.936 ± 0.047 | 0.919 ± 0.02
0.00457 µM | 1.02 ± 0.02 | 0.898 ± 0.039 | 1.08 ± 0.029 | 0.9604 ± 0.008 | 0.927 ± 0.025
0.01372 µM | 1.03 ± 0.033 | 0.9132 ± 0.0061 | 1.05 ± 0.028 | 1.04 ± 0.042 | 0.904 ± 0.017
0.04115 µM | 1.009 ± 0.0052 | 0.9229 ± 0.0089 | 1.092 ± 0.01 | 1.1 ± 0.028 | 0.893 ± 0.024
0.1235 µM | 0.9965 ± 0.0068 | 0.914 ± 0.056 | 1.088 ± 0.0041 | 1.1 ± 0.051 | 0.866 ± 0.023
0.3704 µM | 1.04 ± 0.0074 | 0.951 ± 0.004 | 1.11 ± 0.022 | 1.14 ± 0.015 | 0.844 ± 0.022
1.111 µM | 1.03 ± 0.042 | 0.908 ± 0.019 | 1.04 ± 0.02 | 1.11 ± 0.031 | 0.813 ± 0.014
3.333 µM | 0.977 ± 0.037 | 0.829 ± 0.031 | 1.07 ± 0.04 | 1.06 ± 0.027 | 0.76 ± 0.026
10 µM | 0.632 ± 0.052 | 0.577 ± 0.021 | 0.984 ± 0.049 | 0.953 ± 0.036 | 0.6731 ± 0.0061

CC1(COc2ccc3c(c2)ncn3-c2ccc3cccc(N4CCC(N)CC4)c3n2)COC1 [Crenolanib]
relative viability
Details | KHOS-240S | MES-SA | RD | SW1353 | SYO-1
0.00017 µM | 0.97 ± 0.038 | 0.919 ± 0.036 | 1.02 ± 0.079 | 0.968 ± 0.022 | 0.974 ± 0.045
0.00051 µM | 0.957 ± 0.057 | 0.919 ± 0.025 | 1.05 ± 0.078 | 0.959 ± 0.029 | 0.983 ± 0.022
0.00152 µM | 1.01 ± 0.015 | 0.9274 ± 0.0022 | 1.04 ± 0.064 | 0.938 ± 0.062 | 0.996 ± 0.022
0.00457 µM | 1.02 ± 0.024 | 0.971 ± 0.019 | 1.05 ± 0.061 | 0.97 ± 0.014 | 0.998 ± 0.026
0.01372 µM | 1.01 ± 0.043 | 0.9531 ± 0.0085 | 1.07 ± 0.062 | 0.949 ± 0.031 | 0.953 ± 0.054
0.04115 µM | 1.023 ± 0.0081 | 0.94 ± 0.035 | 1.05 ± 0.052 | 0.917 ± 0.026 | 0.867 ± 0.041
0.1235 µM | 0.986 ± 0.048 | 0.98 ± 0.039 | 1.06 ± 0.1 | 0.92 ± 0.013 | 0.785 ± 0.01
0.3704 µM | 0.963 ± 0.023 | 1.05 ± 0.021 | 1.1 ± 0.044 | 0.84 ± 0.035 | 0.787 ± 0.052
1.111 µM | 0.844 ± 0.019 | 1.03 ± 0.038 | 1.11 ± 0.06 | 0.813 ± 0.017 | 0.659 ± 0.015
3.333 µM | 0.476 ± 0.023 | 0.475 ± 0.012 | 0.955 ± 0.055 | 0.683 ± 0.018 | 0.307 ± 0.0045
10 µM | 0.134 ± 0.0096 | 0.0499 ± 0.012 | 0.02007 ± 0.00012 | 0.009 ± 0.00096 | -0.023 ± 0.0067
